Results from PubChem BioAssay (NCI).
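Protocol summary: plate cells (96-well), add compound at 5 concentrations, incubate 48 h, interpolate endpoints linearly. GI50 is the concentration that inhibits growth by half. TGI denotes the concentration required for complete inhibition of growth.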

How the values were obtained:
Experiment in all cases: NCI tumour cell line growth inhibition, 48 h
SK-OV-3 ovarian = system: SK-OV-3 ovarian
MOLT-4 leukemia = system: MOLT-4 leukemia
SF-295 CNS = system: SF-295 CNS
NCI-H226 lung = system: NCI-H226 lung
786-0 renal = system: 786-0 renal
M14 melanoma = system: M14 melanoma
HCC-2998 colon = system: HCC-2998 colon
OVCAR-4 ovarian = system: OVCAR-4 ovarian
IGROV1 ovarian = system: IGROV1 ovarian
NCI-H23 lung = system: NCI-H23 lung

Row | SMILES | GI50 (SK-OV-3 ovarian) | TGI (SK-OV-3 ovarian) | GI50 (MOLT-4 leukemia) | TGI (MOLT-4 leukemia) | GI50 (SF-295 CNS) | TGI (SF-295 CNS) | GI50 (NCI-H226 lung) | TGI (NCI-H226 lung) | GI50 (786-0 renal) | TGI (786-0 renal) | GI50 (M14 melanoma) | TGI (M14 melanoma) | GI50 (HCC-2998 colon) | TGI (HCC-2998 colon) | GI50 (OVCAR-4 ovarian) | TGI (OVCAR-4 ovarian) | GI50 (IGROV1 ovarian) | TGI (IGROV1 ovarian) | GI50 (NCI-H23 lung) | TGI (NCI-H23 lung)
1 | Cc1nn(C)c2ncnc(N/N=C/c3cccc(O)c3O)c12 | 2.24 µM | > 81 µM | 0.323 µM | 28.7 µM | 2.73 µM | 49.9 µM | 3.69 µM | > 49.2 µM | 1.22 µM | 11.7 µM | 0.259 µM | 1.72 µM | 0.853 µM | > 100 µM | 0.378 µM | 23.4 µM | 1.78 µM | > 30.4 µM | 0.774 µM | > 68.2 µM
2 | CC1=NN(c2ccccc2)C(=O)C12[C@H](c1ccccc1)C2(C#N)C#N (stereo partly specified) |  | 32.7 µM |  | 3.1 µM |  | 25.5 µM |  | 26.3 µM |  | 6.18 µM |  | 3.14 µM |  | 34.1 µM |  | 17.5 µM |  | 28.1 µM |  | 11 µM
3 | CC(=O)c1c[nH]c2ccc(-c3ccnc(Nc4ccc(NC(=O)C5CCCC5)c(CN5CCOCC5)c4)n3)cc12 | 0.0454 µM | > 100 µM | 0.0287 µM | 0.474 µM | 0.0397 µM | 0.611 µM | 0.0298 µM | 0.284 µM | 0.031 µM | 2.63 µM | 0.0274 µM | 0.0955 µM | 0.0444 µM | 0.6 µM | 0.0453 µM | 0.573 µM | 0.0366 µM | 0.377 µM | 0.0344 µM | 0.364 µM
4 | COc1cc(F)c(F)cc1C(=O)c1cnc(NC2CCN(S(C)(=O)=O)CC2)nc1N | 10 µM | > 25 µM | 3.4 µM | 20.4 µM | 2.9 µM | 23.7 µM | 3.1 µM | 22 µM | 5.93 µM | > 25 µM | 4.73 µM | > 25 µM | 4.32 µM | > 25 µM | 6.4 µM | > 25 µM | 5.11 µM | 24.5 µM | 2.62 µM | > 18 µM
5 | CC(C)C[C@H](NC(=O)Cn1cccc(CNC(=O)c2ccccc2)c1=O)B(O)O | 1.2 µM | 41 µM | 0.289 µM | > 100 µM | 0.442 µM | 2.24 µM | 0.202 µM | 0.457 µM | 1.06 µM | > 61.5 µM | 0.27 µM | 1.42 µM | 0.893 µM | 2.57 µM | 0.897 µM | > 77 µM | 4.01 µM | 45.8 µM | 1.05 µM | > 100 µM
6 | CCOC(=O)c1sc2c(C(=O)OCC)n3cc(C)cc(C)c3c2c1O |  | > 100 µM |  | > 100 µM |  | > 100 µM |  | > 100 µM |  | > 100 µM |  | > 100 µM |  | > 100 µM |  | > 100 µM |  | > 100 µM |  | > 100 µM
7 | CC1=C(CO)C(=O)O[C@@H]([C@@H](C)[C@H]2CC[C@H]3[C@@H]4C[C@H]5O[C@]56[C@@H](O)C=CC(=O)[C@]6(C)[C@H]4CC[C@]23C)C1 | 3.93 µM | 13.8 µM |  | 1.72 µM |  | 3 µM |  | 2.86 µM |  | 1.73 µM |  | 1.06 µM |  | 1.56 µM |  | 1.8 µM |  | 0.544 µM |  | 0.81 µM
8 | CCCCCCCCCCCNC=O |  | > 100 µM |  | 60.6 µM |  | > 100 µM |  | > 100 µM |  | > 100 µM |  | > 100 µM |  | 86.1 µM |  | > 100 µM |  | > 100 µM |  | > 100 µM
9 | Cc1ccc(S(=O)(=O)n2cc([C@@]3(O)C[C@H](CSC#N)OC3=O)c3ccccc32)cc1 | 58.8 µM | > 100 µM | 1.71 µM | 4.52 µM | 16.1 µM | 69.2 µM | 16.8 µM | 32.6 µM | 12.7 µM | 26.5 µM | 7.94 µM | 35.9 µM | 27 µM | > 100 µM | 15.6 µM | 43.3 µM | 7.54 µM | 22.4 µM | 26.5 µM | > 100 µM
